What all share (test): MIC determination by microtitre broth dilution
Assay type in all cases: cell-based
(In general: In broth dilution the organism is exposed to a series of concentrations in liquid medium.)

The test system of experiment [1] is S. aureus ATCC25923 C622 wt. To be noted: Gram+, Mueller Hinton broth, 37° C., 24 h, aerobic, N = No activity. The method, then: (§1) MIC assays were conducted essentially as described by Amsterdam, D. 1996, “Susceptibility testing of antimicrobials in liquid media,” p. 52–111. In Loman, V., ed. Antibiotics in laboratory medicine, 4th ed. Williams and Wilkins, Baltimore, Md.

The test system of experiment [2] is E. coli UB1005 C498 wt. To be noted: Gram−, Mueller Hinton broth, 37° C., 24 h, aerobic, N = No activity. As to the method:
as §1

Experiment [3] has as its system S. pyogenes C721 wt. Particulars: Gram+, Todd Hewitt broth, 37° C., 24 h, aerobic, N = No activity. The method, then: as §1
The subject of experiment [4] is P. aeruginosa PAE/K799 H187 Wt. Particulars: Gram−, Mueller Hinton broth, 37° C., 24 h, aerobic, N = No activity. As to the method: as §1
The subject of experiment [5] is K. pneumoniae ATCC13883 C238 wt. Particulars: Gram−, Mueller Hinton broth, 37° C., 24 h, aerobic, N = No activity. The method, then:
as §1

In experiment [6] the test system is S. epidermidis C621 wt. To be noted: Gram+, Mueller Hinton broth, 37° C., 24 h, aerobic, N = No activity. The method, then: as §1

`O=C1c2c(O)ccc(O)c2C(=O)c2c(NCCNCCO)ccc(NCCNCCO)c21` [mitoxantrone]: the “Minimum inhibitory concentration (MIC)” value in experiment [1] is listed as 10^−5 Molar; in experiment [2] it was 10^−5 Molar; in experiment [3] it was 10^−6 Molar; in experiment [4], 10^−5 Molar; in experiment [5], 10^−6 Molar; in experiment [6] it was 10^−5 Molar.
In the case of `O=c1[nH]cc(F)c(=O)[nH]1` [5-Fluorouracil], the “Minimum inhibitory concentration (MIC)” value in experiment [1] is 10^−7 Molar; in experiment [2], 10^−6 Molar; in experiment [3], 10^−4 Molar; in experiment [4] it was 10^−5 Molar; in experiment [5], 10^−6 Molar; in experiment [6] it was 10^−7 Molar.
For `NC(=O)NO` [hydroxyurea], the “Minimum inhibitory concentration (MIC)” value in experiment [1] is “N”; in experiment [2], “N”; in experiment [3], 10^−4 Molar; in experiment [4], 10^−4 Molar; in experiment [5], “N”; in experiment [6], “N”.
`CN(Cc1cnc2nc(N)nc(N)c2n1)c1ccc(C(=O)N[C@@H](CCC(=O)O)C(=O)O)cc1` [Methotrexate]: the “Minimum inhibitory concentration (MIC)” value in experiment [1] is listed as 10^−5 Molar; in experiment [2] it was “N”; in experiment [3], 10^−6 Molar; in experiment [4] it was “N”; in experiment [5] it was 10^−6 Molar; in experiment [6] it was “N”.
Turning to `COc1cc([C@@H]2c3cc4c(cc3[C@@H](O[C@@H]3O[C@@H]5CO[C@@H](C)O[C@H]5[C@H](O)[C@H]3O)[C@H]3COC(=O)[C@H]23)OCO4)cc(OC)c1O` [etoposide], the “Minimum inhibitory concentration (MIC)” value in experiment [1] is 10^−5 Molar; in experiment [2], “N”; in experiment [3], 10^−5 Molar; in experiment [4], “N”; in experiment [5], 10^−5 Molar; in experiment [6], 10^−6 Molar.
Turning to `Sc1ncc2[nH]cnc2n1` [2-mercaptopurine], the “Minimum inhibitory concentration (MIC)” value in experiment [1], in experiment [2], in experiment [3], in experiment [4], in experiment [5] and in experiment [6] was “N” throughout.
Turning to `Sc1ncnc2nc[nH]c12` [6-mercaptopurine], the “Minimum inhibitory concentration (MIC)” value in experiment [1], in experiment [2], in experiment [3], in experiment [4], in experiment [5] and in experiment [6] was “N” in each case.
With `Nc1ncnc2c1ccn2[C@@H]1O[C@H](CO)[C@@H](O)[C@H]1O` [tubercidin], the “Minimum inhibitory concentration (MIC)” value in experiment [1], in experiment [2], in experiment [3], in experiment [4], in experiment [5] and in experiment [6] was “N” throughout.
`Nc1ccn([C@@H]2O[C@H](CO)[C@@H](O)[C@@H]2O)c(=O)n1` [Cytarabine]: the “Minimum inhibitory concentration (MIC)” value in experiment [1], in experiment [2], in experiment [3], in experiment [4], in experiment [5] and in experiment [6] was “N” each time.
On to `COc1cccc2c1C(=O)c1c(O)c3c(c(O)c1C2=O)C[C@@](O)(C(=O)CO)C[C@@H]3O[C@H]1C[C@H](N)[C@H](O)[C@H](C)O1` [Doxorubicin], for which the “Minimum inhibitory concentration (MIC)” value in experiment [1] was 10^−5 Molar; in experiment [2] it was 10^−4 Molar; in experiment [3] it was 10^−7 Molar; in experiment [4], 10^−5 Molar; in experiment [5], 10^−6 Molar; in experiment [6], 10^−6 Molar.
In the case of `CC[C@@]1(O)C(=O)OCc2c1cc1n(c2=O)Cc2cc3ccccc3nc2-1` [Camptothecin], the “Minimum inhibitory concentration (MIC)” value in experiment [1] is on record as “N”; in experiment [2], “N”; in experiment [3], “N”; in experiment [4] it was “N”; in experiment [5] it was “N”; in experiment [6] it was 10^−4 Molar.

(Values after patent publication US7166570B2, “Medical implants and fibrosis-inducing agents” (Angiotech International AG, priority 2003, dated 2007).)
